# Assay results reported in patent publication US8735414B2 (priority 2009, dated 2014).
# Key:
# [1] = system: bicistronic HCV replicon (replicon RNA, GenBank Accession No. AJ242654); assay: HCV Replicon Assay; type: cell-based; details: Hepatitis C virus, 72 h, read-out: Replicon IC50
Structure (SMILES),melting point,IC50 [1]
"Cc1cc2c(cc1F)c(C#N)c(-c1ccc(S(=O)(=O)NC(C)(C)C(F)(F)F)cn1)n2C1CCC1 [compound 539, 6-(3-cyano-1-cyclobutyl-5-fluoro-6-methyl-1H-indol-2-yl)-N-(1,1,1-trifluoro-2-methylpropan-2-yl)pyridine-3-sulfonamide]",238 to 243 °C,< 500 nM
"C[C@H](NS(=O)(=O)c1cnc(-c2c(C#N)c3ccc(C4CC4)cc3n2C2CCCC2)nc1)C1CC1 [compound 254, 2-(3-cyano-1-cyclopentyl-6-cyclopropyl-1H-indol-2-yl)-N-[(1S)-1-cyclopropylethyl]pyrimidine-5-sulfonamide]",185 to 189 °C,500 to 2000 nM
"C[C@@H](NS(=O)(=O)c1ccc(-c2c(C#N)c3ccc(CF)cc3n2C2CCC2)nc1)C(F)(F)F [compound 319, 6-[3-cyano-1-cyclobutyl-6-(fluoromethyl)-1H-indol-2-yl]-N-[(2R)-1,1,1-trifluoropropan-2-yl]pyridine-3-sulfonamide]",200 to 213 °C,500 to 2000 nM
"C[C@H](NS(=O)(=O)c1cnc(-c2c(C#N)c3ccc(CC(F)F)cc3n2C2CCC2)nc1)C(F)(F)F [compound 385, 2-[3-cyano-1-cyclobutyl-6-(2,2-difluoroethyl)-1H-indol-2-yl]-N-[(2S)-1,1,1-trifluoropropan-2-yl]pyrimidine-5-sulfonamide]",216 to 218 °C,< 500 nM
"Cc1cc2c(cc1F)c(C#N)c(-c1ccc(S(=O)(=O)NC3(C(F)(F)F)CC3)cn1)n2C1CCC1 [compound 613, 6-(3-cyano-1-cyclobutyl-5-fluoro-6-methyl-1H-indol-2-yl)-N-[1-(trifluoromethyl)cyclopropyl]pyridine-3-sulfonamide]",223 to 232 °C,< 500 nM
"Cc1ccc2c(C#N)c(-c3ccc(S(=O)(=O)NC(C)(C)C(F)(F)F)cn3)n(-c3ccccn3)c2c1 [compound 686, 6-[3-cyano-6-methyl-1-(pyridin-2-yl)-1H-indol-2-yl]-N-(1,1,1-trifluoro-2-methylpropan-2-yl)pyridine-3-sulfonamide]",208 to 209 °C,< 500 nM
"CCc1cc2c(cc1F)c(C#N)c(-c1ccc(S(=O)(=O)N[C@H](C)C(F)(F)F)cn1)n2C1CCCC1 [compound 632, 6-(3-cyano-1-cyclopentyl-6-ethyl-5-fluoro-1H-indol-2-yl)-N-[(2R)-1,1,1-trifluoropropan-2-yl]pyridine-3-sulfonamide]",205.5 to 206 °C,< 500 nM
"C[C@H](NS(=O)(=O)c1ccc(-c2c(C#N)c3cc(F)c(OC(F)F)cc3n2-c2ccccn2)nc1)C(F)(F)F [compound 657, 6-[3-cyano-6-(difluoromethoxy)-5-fluoro-1-(pyridine-2-yl)-1H-indol-2-yl]-N-[(2S)-1,1,1-trifluoropropan-2-yl]pyridine-3-sulfonamide]",161 to 163 °C,< 500 nM
"C[C@H](NS(=O)(=O)c1ccc(-c2c(C(N)=O)c3cc(F)c(C4CC4)cc3n2C2CCC2)nc1)C(F)(F)F [compound 731, 1-cyclobutyl-6-cyclopropyl-5-fluoro-2-(5-{[(2S)-1,1,1-trifluoropropan-2-yl]sulfamoyl}pyridin-2-yl)-1H-indole-3-carboxamide]",225 to 227 °C,< 500 nM
"C[C@H](NS(=O)(=O)c1ccc(-c2c(C#N)c3c(F)cc(OC(F)F)cc3n2C2CCC2)nc1)C(F)(F)F [compound 797, 6-[3-cyano-1-cyclobutyl-6-(difluoromethoxy)-4-fluoro-1H-indol-2-yl]-N-[(2S)-1,1,1-trifluoropropan-2-yl]pyridine-3-sulfonamide]",210 to 212 °C,< 500 nM
"C[C@H](NS(=O)(=O)c1ccc(-c2c(C#N)c3ccc(Cl)cc3n2C2CCCCC2)nc1)C(F)(F)F [compound 515, 6-(6-chloro-3-cyano-1-cyclohexyl-1H-indol-2-yl)-N-[(2S)-1,1,1-trifluoropropan-2-yl]pyridine-3-sulfonamide]",217 to 224 °C,< 500 nM
"CCc1cc2c(cc1F)c(C#N)c(-c1ccc(S(=O)(=O)N[C@@H](C)C(F)(F)F)cn1)n2-c1ccnc(C)n1 [compound 943, 6-[3-cyano-6-ethyl-5-fluoro-1-(2-methylpyrimidin-4-yl)-1H-indol-2-yl]-N-[(2S)-1,1,1-trifluoropropan-2-yl]pyridine-3-sulfonamide]",138 to 146 °C,500 to 2000 nM
"C[C@H](NS(=O)(=O)c1ccc(-c2cc3cc(F)c(O)cc3n2C2CCC2)nc1)C(F)(F)F [compound 728, 6-(1-cyclobutyl-5-fluoro-6-hydroxy-1H-indol-2-yl)-N-[(2S)-1,1,1-trifluoropropan-2-yl]pyridine-3-sulfonamide]",193 to 195 °C,2000 to 5000 nM
"N#Cc1c(-c2ccc(S(=O)(=O)NC3(C(F)(F)F)CC3)cn2)n(-c2ccc(F)cc2)c2cc(OC(F)F)ccc12 [compound 664, 6-[3-cyano-6-(difluoromethoxy)-1-(4-fluorophenyl)-1H-indol-2-yl]-N-[1-(trifluoromethyl)cyclopropyl]pyridine-3-sulfonamide]",195 to 198 °C,< 500 nM
"C[C@H](NS(=O)(=O)c1ccc(-c2c(C#N)c3ccc(C(F)F)cc3n2C2CCC2)nc1)C1CC1 [compound 335, 6-[3-cyano-1-cyclobutyl-6-(difluoromethyl)-1H-indol-2-yl]-N-[(1S)-1-cyclopropylethyl]pyridine-3-sulfonamide]",182 to 189 °C,< 500 nM
"CC(C)c1ccc2c(C#N)c(-c3ccc(S(=O)(=O)NC(CF)CF)cn3)n(CC3CC3)c2c1 [compound 460, 6-[3-cyano-1-(cyclopropylmethyl)-6-(propan-2-yl)-1H-indol-2-yl]-N-(1,3-difluoropropan-2-yl)pyridine-3-sulfonamide]",132 to 134 °C,< 500 nM
"Cc1cc2c(cc1F)c(C#N)c(-c1ccc(S(=O)(=O)N[C@@H](C)C(F)(F)F)cn1)n2-c1cccc(F)n1 [compound 815, 6-[3-cyano-5-fluoro-1-(6-fluoropyridin-2-yl)-6-methyl-1H-indol-2-yl]-N-[(2S)-1,1,1-trifluoropropan-2-yl]pyridine-3-sulfonamide]",210 to 212 °C,< 500 nM
"CC(C)(NS(=O)(=O)c1ccc(-c2c(C#N)c3cc(F)c(OC(F)F)cc3n2C2CCC2)nc1)C(F)(F)F [compound 676, 6-[3-cyano-1-cyclobutyl-6-(difluoromethoxy)-5-fluoro-1H-indol-2-yl]-N-(1,1,1-trifluoro-2-methylpropan-2-yl)pyridine-3-sulfonamide]",162 to 165 °C,< 500 nM
"Cc1cc2c(cc1F)c(C#N)c(-c1ccc(S(=O)(=O)N[C@@H](C)C(F)(F)F)cn1)n2-c1ccncn1 [compound 896, 6-[3-cyano-5-fluoro-6-methyl-1-(pyrimidin-4-yl)-1H-indol-2-yl]-N-[(2S)-1,1,1-trifluoropropan-2-yl]pyridine-3-sulfonamide]",214 to 219 °C,< 500 nM
"CSc1cc2c(cc1F)c(C#N)c(-c1ccc(S(=O)(=O)N[C@@H](C)C(F)(F)F)cn1)n2C1CCC1 [compound 772, 6-[3-cyano-1-cyclobutyl-5-fluoro-6-(methylsulfanyl)-1H-indol-2-yl]-N-[(2S)-1,1,1-trifluoropropan-2-yl]pyridine-3-sulfonamide]",201 to 203 °C,< 500 nM
